Assay [1] has as its target B*3501 (Homo sapiens, UniProt P01889, A329T/A93T/A95T/C349S/D201E/D98Y/E176V/E187L/E204Q/E69T/I218V/K202T/L119I/Q94N/R155S/R180L/S121R/S35A/S48A/T118I/V127L/V306I/V36M/Y140S/Y91F). Nature of the assay: Competition binding assay using soluble HLA class I. The settings on record: for Ki: HLA-B3501 section.
The target in assay [2] is T1, DRB1*0101 (Homo sapiens, UniProt P01903+P01911, A100R/D57E/F55L/F60I/F76Y/I96L/L162R/M171V/P40L/Q125E/R42F/V115G/Y59C).
T1 construct: endogenous in cells; host or cells: cell lysate
The assay is described as follows: Competition binding assay using soluble HLA class II.

Assay [3] addresses T2, DRB1*0301 (Homo sapiens, UniProt P01903+P01911, A100K/A102G/A103R/A169T/F55Y/I96L/K41T/L162R/M171V/P40S/Q125H/Q178H/Q39Y/R42S/S66N/T106N/T262R/W38E/Y61H).
T2 construct: endogenous in cells; HLA-DR was extracted from cell lysates on an LB3.1 antibody column
The assay is described as above.

Assay [4] addresses T3, B*0702 (Homo sapiens, UniProt P01889).
T3 construct: endogenous in cells
The assay is described as follows: Competition binding assay using soluble HLA class I.

Assay [5] concerns the target T4, DRB1*0401 (Homo sapiens, UniProt P01903+P01911, A100K/A169T/F76Y/I96L/K127E/L162R/M171V/N62H/P40V/Q125Y/R42H/S133A/S149N/S66Y/V115G/V209L/W38E).
T4 construct: endogenous in cells; host or cells: cell lysate
The assay is described as follows: Competition binding assay using soluble HLA class II. Particulars: HLA-DRB1*0401; individual experiment or mean of several.

The target in assay [6] is T5, HLA-A03 (Homo sapiens, UniProt P04439).
T5 construct: endogenous in cells
Nature of the assay: Competition binding assay using soluble HLA class I. The settings on record: HLA-A1101 section; read-out: binds A0301 (asterisk in Ki column).

Where a SMILES comes first, the peptide text is derived from it.

A word on the Ki: it is the equilibrium dissociation constant of an inhibitor or competing ligand from its target. The molecule `CC[C@H](C)[C@H](NC(=O)[C@H](CCC(N)=O)NC(=O)CNC(=O)CNC(=O)CNC(=O)[C@@H]1CCCN1C(=O)[C@@H](N)Cc1ccccc1)C(=O)N[C@H](C(=O)NCC(=O)O)C(C)C` showed a Ki in assay [1] of 2600 nM.

Usually IC50 stands for the concentration needed to halve the response being measured. Low values mean greater potency in that assay, high ones weaker potency in that assay. Take `CSCC[C@H](NC(=O)[C@H](CCCNC(=N)N)NC(=O)[C@H](Cc1c[nH]cn1)NC(=O)CN)C(=O)N[C@@H](C)C(=O)N[C@@H](Cc1c[nH]c2ccccc12)C(=O)N[C@@H](CC(=O)O)C(=O)N[C@@H](CCSC)C(=O)N[C@@H](CCSC)C(=O)N[C@@H](CCSC)C(=O)N[C@@H](CC(N)=O)C(=O)N[C@@H](Cc1c[nH]c2ccccc12)C(=O)N[C@@H](CO)C(=O)N1CCC[C@H]1C(=O)N[C@H](C(=O)O)[C@@H](C)O`: the IC50 in assay [2] was 183 nM; in assay [3], 0.919 µM. As for `CSCC[C@H](N)C(=O)NCC(=O)N[C@@H](CO)C(=O)N[C@@H](CO)C(=O)N[C@@H](Cc1ccc(O)cc1)C(=O)NCC(=O)N[C@@H](Cc1ccccc1)C(=O)N[C@@H](CCC(N)=O)C(=O)N[C@@H](Cc1ccc(O)cc1)C(=O)O`, the Ki in assay [1] came to 2610 nM.

Take `CC(C)[C@H](NC(=O)[C@H](CCCNC(=N)N)NC(=O)[C@H](C)NC(=O)[C@H](C)NC(=O)[C@H](C)NC(=O)[C@H](CC(=O)O)NC(=O)[C@H](CO)NC(=O)[C@H](CCC(=O)O)NC(=O)[C@@H]1CCCN1C(=O)[C@@H](NC(=O)[C@H](Cc1ccc(O)cc1)NC(=O)[C@H](Cc1c[nH]cn1)NC(=O)[C@@H](NC(=O)[C@@H]1CCCN1)[C@@H](C)O)C(C)C)C(=O)N[C@H](C(=O)O)[C@@H](C)O`: the IC50 in assay [3] is 4.95 µM. Regarding `CC(C)C[C@H](NC(=O)[C@H](CCCNC(=N)N)NC(=O)[C@@H](NC(=O)[C@H](CO)NC(=O)[C@@H](NC(=O)[C@H](CCC(=O)O)NC(=O)[C@H](C)NC(=O)[C@@H]1CCCN1C(=O)[C@@H](N)[C@@H](C)O)[C@@H](C)O)C(C)C)C(=O)O`, the IC50 in assay [1] (Table 18, HLA-B7 binding peptides) turned out to be 1640 nM; in assay [4], 375 nM. Moreover, the Ki is 375 nM in assay [4] (Ki (nM), HLA-B0702 section) and under 1000 nM in assay [4] (binds B0702 with Ki < 1000 nM (asterisk), asterisk in the HLA-B3501 section). Turning to `CC(C)C[C@H](NC(=O)[C@H](CCCNC(=N)N)NC(=O)[C@@H]1CCCN1C(=O)CN)C(=O)NCC(=O)N[C@H](C(=O)N[C@@H](CCCNC(=N)N)C(=O)N[C@@H](C)C(=O)N[C@H](C(=O)N[C@@H](CCCNC(=N)N)C(=O)N[C@@H](CCCCN)C(=O)N[C@H](C(=O)N[C@@H](CO)C(=O)N[C@@H](CCC(=O)O)C(=O)N[C@@H](CCCNC(=N)N)C(=O)O)[C@@H](C)O)[C@@H](C)O)C(C)C` (H-GPRLGVRATRKTSER-OH; N-terminus and C-terminus assumed), the IC50 in assay [3] amounted to 18.9 µM. For `CC(C)C[C@H](NC(=O)[C@@H](NC(=O)[C@@H](NC(=O)[C@@H](N)CC(C)C)C(C)C)C(C)C)C(=O)N[C@@H](C)C(=O)N[C@H](C(=O)N[C@@H](C)C(=O)N[C@H](C(=O)N1CCC[C@H]1C(=O)N1CCC[C@H]1C(=O)NCC(=O)N[C@@H](CO)C(=O)N[C@H](C(=O)N[C@H](C(=O)N[C@H](C(=O)O)C(C)C)[C@@H](C)O)C(C)C)[C@@H](C)O)[C@@H](C)O` (H-LVVLATATPPGSVTV-OH; N-terminus and C-terminus assumed), the IC50 in assay [2] was determined as 73 nM; in assay [5], 4 nM; in assay [3] it was 4.23 µM.

For the molecule `CC[C@H](C)[C@H](NC(=O)[C@@H]1CCCN1C(=O)[C@H](CCC(N)=O)NC(=O)[C@@H](N)CCCNC(=N)N)C(=O)N1CCC[C@H]1C(=O)N[C@@H](CCCCN)C(=O)N[C@@H](C)C(=O)N[C@@H](CCCNC(=N)N)C(=O)N[C@@H](CCCNC(=N)N)C(=O)O` (H-RQPIPKARR-OH), the Ki in assay [6] is under 1000 nM. On the same count and under the same terms, the same measure for `CC(C)C[C@H](NC(=O)[C@@H](N)Cc1ccc(O)cc1)C(=O)N[C@@H](CC(C)C)C(=O)N1CCC[C@H]1C(=O)N[C@@H](CCCNC(=N)N)C(=O)N[C@@H](CCCNC(=N)N)C(=O)NCC(=O)N1CCC[C@H]1C(=O)N[C@@H](CCCNC(=N)N)C(=O)O` (H-YLLPRRGPR-OH): under 1000 nM.
